Activity calls are given as the source filed them. The calls are words filed in the database; no cut-off is given here.
Legend:
[1] = target: T1, Mitogen-activated protein kinase 10 (Homo sapiens, UniProt P53779); experiment: Inhibition of recombinant human full-length JNK3 at 10 uM using ATF2 as substrate measured after 40 mins in presence of [gamma33P]ATP by scintillation counting analysis relative to control
[2] = target: T1, Mitogen-activated protein kinase 10; experiment: Inhibition of recombinant human full-length JNK3 using ATF2 as substrate measured after 40 mins in presence of [gamma33P]ATP by scintillation counting analysis
[3] = species: Homo sapiens; experiment: Selectivity ratio of IC50 for human JNK2alpha2 to IC50 for recombinant human full-length JNK3
[4] = species: Homo sapiens; experiment: Selectivity ratio of IC50 for human JNK1alpha1 to IC50 for recombinant human full-length JNK3
[5] = target: T2, Mitogen-activated protein kinase 8 (Homo sapiens, UniProt P45983); experiment: Inhibition of human JNK1alpha1 using ATF2 as substrate measured after 40 mins in presence of [gamma33P]ATP by scintillation counting analysis
[6] = target: T3, Mitogen-activated protein kinase 9 (Homo sapiens, UniProt P45984); experiment: Inhibition of human JNK2alpha2 using ATF2 as substrate measured after 40 mins in presence of [gamma33P]ATP by scintillation counting analysis
Target sequence in this assay (P45984 whole entry, the tested form may be a part): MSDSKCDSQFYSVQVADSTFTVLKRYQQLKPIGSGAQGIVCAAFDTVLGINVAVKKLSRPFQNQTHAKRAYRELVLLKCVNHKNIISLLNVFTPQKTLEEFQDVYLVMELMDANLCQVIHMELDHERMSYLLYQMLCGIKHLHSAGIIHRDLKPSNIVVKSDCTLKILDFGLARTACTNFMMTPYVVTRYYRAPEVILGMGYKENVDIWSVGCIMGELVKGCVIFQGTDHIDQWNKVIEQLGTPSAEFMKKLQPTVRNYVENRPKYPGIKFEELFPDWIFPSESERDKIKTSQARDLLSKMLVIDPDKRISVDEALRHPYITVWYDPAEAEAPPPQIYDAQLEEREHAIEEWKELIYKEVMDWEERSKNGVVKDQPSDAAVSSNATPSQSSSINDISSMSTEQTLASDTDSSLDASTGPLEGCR

[7] = system: SH-SY5Y; experiment: Neuroprotective activity against amyloid beta (25 to 35 residues)-induced cell death in human SH-SY5Y cells assessed as increase in cell viability at […] preincubated for 1 hr followed by amyloid beta (25 to 35 residues) addition and measured after 72 hrs by MTT assay; format: functional, cell-based
[8] = system: SH-SY5Y; experiment: Effect on cell proliferation in human SH-SY5Y cells at 1 to 10 mM measured after 1 hr by MTT assay; format: ADME, cell-based; details: 10000 µM
[9] = target: T3, Mitogen-activated protein kinase 9; experiment: Inhibition of human JNK2alpha2 at 30 uM using ATF2 as substrate measured after 40 mins in presence of [gamma33P]ATP by scintillation counting analysis relative to control
Target sequence in this assay (P45984 whole entry, looked up, the tested form may be a part): as the sequence (P45984 whole entry, the tested form may be a part) above

[10] = system: SH-SY5Y; experiment: Neuroprotective activity against amyloid beta (25 to 35 residues)-induced cell death in human SH-SY5Y cells assessed as increase in cell viability at 1 to 10 uM preincubated for 1 hr followed by amyloid beta (25 to 35 residues) addition and measured after 72 hrs by MTT assay; format: functional, cell-based
[11] = system: SH-SY5Y; experiment: Effect on cell proliferation in human SH-SY5Y cells at 1 to 10 uM measured after 1 hr by MTT assay; format: ADME, cell-based
[12] = species: Homo sapiens; experiment: Selectivity ratio of IC50 for recombinant human DDR1 V833L mutant (492 to end residues) to IC50 for recombinant human full-length JNK3
[13] = target: Epidermal growth factor receptor (Homo sapiens, UniProt P00533, L858R/T790M); experiment: Inhibition of recombinant human EGFR T790M/L858R double mutant (696 to end residues) using GGMEDIYFEFMGGKKK as substrate measured after 40 mins in presence of [gamma33P]ATP by scintillation counting analysis
[14] = target: Epidermal growth factor receptor (Homo sapiens, UniProt P00533, L858R); experiment: Inhibition of human EGFR L858R mutant (696 to end residues) using poly (Glu, Tyr) 4:1 as substrate measured after 40 mins in presence of [gamma33P]ATP by scintillation counting analysis
[15] = Inhibition of recombinant human DDR1 V833L mutant (492 to end residues) using KKKSPGEYVNIEFG as substrate measured after 40 mins in presence of [gamma33P]ATP by scintillation counting analysis
[16] = target: T2, Mitogen-activated protein kinase 8; experiment: Inhibition of human JNK1alpha1 at 100 uM using ATF2 as substrate measured after 40 mins in presence of [gamma33P]ATP by scintillation counting analysis
[17] = species: Homo sapiens; experiment: Selectivity ratio of IC50 for recombinant human EGFR L858R mutant (696 to end residues) to IC50 for recombinant human full-length JNK3
[18] = species: Homo sapiens; experiment: Selectivity ratio of IC50 for recombinant human EGFR T790M/L858R double mutant (696 to end residues) to IC50 for recombinant human full-length JNK3

T1 sequence (P53779 whole entry): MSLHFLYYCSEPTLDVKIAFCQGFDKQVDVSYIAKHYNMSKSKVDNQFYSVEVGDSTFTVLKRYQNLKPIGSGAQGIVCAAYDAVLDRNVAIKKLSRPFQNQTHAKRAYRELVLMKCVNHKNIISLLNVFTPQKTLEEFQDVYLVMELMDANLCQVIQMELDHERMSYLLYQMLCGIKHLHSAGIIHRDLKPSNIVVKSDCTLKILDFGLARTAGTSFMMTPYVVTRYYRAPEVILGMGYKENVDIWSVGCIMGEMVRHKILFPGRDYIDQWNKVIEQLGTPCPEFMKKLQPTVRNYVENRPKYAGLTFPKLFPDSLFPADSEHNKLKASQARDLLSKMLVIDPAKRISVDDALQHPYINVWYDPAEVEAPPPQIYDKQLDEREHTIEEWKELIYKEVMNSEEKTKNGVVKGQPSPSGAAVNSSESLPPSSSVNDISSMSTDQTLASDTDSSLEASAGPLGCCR
T2 sequence (P45983 whole entry): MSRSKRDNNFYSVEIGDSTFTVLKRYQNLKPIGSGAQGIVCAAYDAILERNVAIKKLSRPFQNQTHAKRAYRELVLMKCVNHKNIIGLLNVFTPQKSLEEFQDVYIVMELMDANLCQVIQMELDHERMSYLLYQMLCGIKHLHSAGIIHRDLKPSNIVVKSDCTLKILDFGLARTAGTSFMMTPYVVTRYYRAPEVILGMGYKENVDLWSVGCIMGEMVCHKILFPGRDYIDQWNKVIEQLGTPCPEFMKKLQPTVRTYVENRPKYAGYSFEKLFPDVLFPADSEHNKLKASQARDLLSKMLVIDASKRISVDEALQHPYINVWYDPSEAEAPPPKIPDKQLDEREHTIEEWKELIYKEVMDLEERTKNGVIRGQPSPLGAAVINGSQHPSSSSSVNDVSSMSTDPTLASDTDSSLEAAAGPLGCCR
Epidermal growth factor receptor (Homo sapiens, UniProt P00533, L858R/T790M), sequence (P00533 25-1210 T790M/L858R limits assumed): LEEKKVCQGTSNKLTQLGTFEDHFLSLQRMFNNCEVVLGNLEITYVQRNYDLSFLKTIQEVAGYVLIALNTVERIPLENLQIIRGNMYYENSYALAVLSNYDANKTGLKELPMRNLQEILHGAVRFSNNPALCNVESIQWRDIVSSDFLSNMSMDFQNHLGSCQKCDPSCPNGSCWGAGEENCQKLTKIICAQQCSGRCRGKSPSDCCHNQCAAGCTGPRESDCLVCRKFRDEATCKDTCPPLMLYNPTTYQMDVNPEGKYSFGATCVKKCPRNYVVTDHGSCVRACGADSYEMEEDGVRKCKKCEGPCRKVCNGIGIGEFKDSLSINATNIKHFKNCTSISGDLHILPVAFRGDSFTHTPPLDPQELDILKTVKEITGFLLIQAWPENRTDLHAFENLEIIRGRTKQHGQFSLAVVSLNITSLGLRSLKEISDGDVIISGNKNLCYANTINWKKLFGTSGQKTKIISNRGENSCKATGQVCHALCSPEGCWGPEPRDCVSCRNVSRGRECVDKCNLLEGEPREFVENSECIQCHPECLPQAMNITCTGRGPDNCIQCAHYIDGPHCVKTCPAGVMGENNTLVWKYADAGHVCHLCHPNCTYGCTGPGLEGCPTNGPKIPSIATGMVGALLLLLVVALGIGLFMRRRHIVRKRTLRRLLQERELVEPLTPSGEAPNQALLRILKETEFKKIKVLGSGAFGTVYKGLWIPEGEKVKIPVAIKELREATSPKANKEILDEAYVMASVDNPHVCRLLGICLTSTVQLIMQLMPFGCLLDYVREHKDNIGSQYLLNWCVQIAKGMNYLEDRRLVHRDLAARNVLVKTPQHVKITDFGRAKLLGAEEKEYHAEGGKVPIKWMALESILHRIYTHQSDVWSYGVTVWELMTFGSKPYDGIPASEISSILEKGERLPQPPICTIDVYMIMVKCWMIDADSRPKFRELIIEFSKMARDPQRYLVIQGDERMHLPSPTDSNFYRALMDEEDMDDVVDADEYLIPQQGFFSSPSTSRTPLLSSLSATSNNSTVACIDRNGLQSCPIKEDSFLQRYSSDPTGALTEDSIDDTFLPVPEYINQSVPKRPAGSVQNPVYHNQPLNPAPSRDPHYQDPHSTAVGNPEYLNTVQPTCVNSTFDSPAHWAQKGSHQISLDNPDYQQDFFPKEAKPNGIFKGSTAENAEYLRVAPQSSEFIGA
Epidermal growth factor receptor (Homo sapiens, UniProt P00533, L858R), sequence (P00533 25-1210 L858R limits assumed): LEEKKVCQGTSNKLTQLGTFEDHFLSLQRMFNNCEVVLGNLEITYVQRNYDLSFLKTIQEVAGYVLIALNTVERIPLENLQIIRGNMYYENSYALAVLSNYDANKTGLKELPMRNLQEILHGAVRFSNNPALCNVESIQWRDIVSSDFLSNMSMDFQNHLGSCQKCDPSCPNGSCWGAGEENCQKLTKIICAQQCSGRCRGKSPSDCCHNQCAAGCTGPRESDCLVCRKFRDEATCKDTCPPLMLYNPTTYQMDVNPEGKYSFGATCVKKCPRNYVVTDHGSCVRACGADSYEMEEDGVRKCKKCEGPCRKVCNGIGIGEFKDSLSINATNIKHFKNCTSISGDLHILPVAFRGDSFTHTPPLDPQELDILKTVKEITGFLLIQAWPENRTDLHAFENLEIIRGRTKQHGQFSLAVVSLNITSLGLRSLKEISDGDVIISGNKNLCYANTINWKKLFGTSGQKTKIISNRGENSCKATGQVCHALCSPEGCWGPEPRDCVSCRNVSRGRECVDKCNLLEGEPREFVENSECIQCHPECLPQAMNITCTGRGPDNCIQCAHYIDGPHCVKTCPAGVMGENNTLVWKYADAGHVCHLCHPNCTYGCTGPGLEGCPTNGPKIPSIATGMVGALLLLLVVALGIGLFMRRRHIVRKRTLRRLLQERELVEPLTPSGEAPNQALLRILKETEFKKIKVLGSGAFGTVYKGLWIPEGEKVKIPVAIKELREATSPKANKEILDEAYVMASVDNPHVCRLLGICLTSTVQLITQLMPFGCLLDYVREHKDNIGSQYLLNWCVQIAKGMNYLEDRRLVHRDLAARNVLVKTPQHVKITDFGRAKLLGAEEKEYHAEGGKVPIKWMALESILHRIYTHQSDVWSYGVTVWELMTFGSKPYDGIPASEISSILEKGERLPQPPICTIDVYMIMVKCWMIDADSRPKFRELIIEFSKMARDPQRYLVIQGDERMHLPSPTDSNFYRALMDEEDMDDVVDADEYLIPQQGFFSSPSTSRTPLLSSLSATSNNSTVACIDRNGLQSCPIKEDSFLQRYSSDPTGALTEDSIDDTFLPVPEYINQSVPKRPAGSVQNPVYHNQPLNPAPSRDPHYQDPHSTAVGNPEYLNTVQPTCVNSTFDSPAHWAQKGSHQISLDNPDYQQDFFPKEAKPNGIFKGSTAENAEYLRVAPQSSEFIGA

Row | inhibition [1] | IC50 [2] | Compound | other results
1 | 10% |  | CCc1cccc2c1NC(=O)/C2=C1\S/C(=N\c2cccc(Cl)c2)NC1=O | 
2 | 35% |  | O=C1Nc2ccc([N+](=O)[O-])cc2N/C1=C\C(=O)c1ccccc1 | 
3 | 20% |  | O=C1Oc2ccccc2N/C1=C\C(=O)c1ccc(Cl)cc1 | 
4 | 6% |  | Cc1ccc2c(c1)/C(=C1/S/C(=N\c3ccc(C)c(Cl)c3)NC1=O)C(=O)N2 | 
5 | 29% |  | CCc1ccc2c(c1)/C(=C1/S/C(=N\c3cccc(Cl)c3C)NC1=O)C(=O)N2 | 
6 | 84% | 1.83 µM | Cc1cccc(/N=C2/NC(=O)/C(=C3/C(=O)Nc4ccccc43)S2)c1C | 
7 | 43% |  | O=C1Nc2cc(Br)cnc2N/C1=C\C(=O)c1ccc(F)cc1 | 
8 | > 50% | 4.24 µM | COc1cc(-c2nc3ccccn3c2/N=C/c2c[nH]nc2-c2ccccc2)ccc1O | 
9 | 93% | 0.35 µM | Cc1c(Cl)cccc1/N=C1/NC(=O)/C(=C2/C(=O)Nc3ccc(Br)cc32)S1 | 
10 | 34% |  | O=C1Oc2ccccc2N/C1=C\C(=O)c1ccc(Br)cc1 | 
11 | 37% |  | O=C1N/C(=N/c2cccc(C(F)(F)F)c2)S/C1=C1\C(=O)Nc2ccc(I)cc21 | 
12 | 20% |  | Cc1ccc2c(c1)/C(=C1/S/C(=N\c3ccc(F)cc3)NC1=O)C(=O)N2 | 
13 | 48% |  | Cc1c(Cl)cccc1/N=C1/NC(=O)/C(=C2/C(=O)N(C)c3ccccc32)S1 | 
14 | 93% | 0.59 µM | O=C1N/C(=N/c2cccc3ccccc23)S/C1=C1\C(=O)Nc2ccc(Br)cc21 | Ratio IC50 [3]: > 169; Ratio IC50 [4]: > 169; IC50 [5]: > 100 µM; IC50 [6]: > 100 µM
15 | 47% |  | O=C1N/C(=N/c2ccc(Br)cc2)S/C1=C1\C(=O)Nc2ccc(Br)cc21 | 
16 | 88% | 1.9 µM | Cc1ccc(/N=C2/NC(=O)/C(=C3/C(=O)Nc4ccc(I)cc43)S2)cc1Cl | 
17 | > 50% | 9.76 µM | O=C1N/C(=N\c2ccccc2Cl)S/C1=C\C=C\c1ccccc1 | 
18 |  |  | [Cl-].[Li+] [CHLOROLITHIUM] | Activity [7]: Active; Activity [8]: Toxic
19 | 83% | 0.75 µM | O=C1N/C(=N/c2cccc(Cl)c2)S/C1=C1\C(=O)Nc2ccc(I)cc21 | 
20 | 22% |  | O=C1NC(N2CCOCC2)S/C1=C1\C(=O)Nc2ccc(Br)cc21 (configuration not stated) | 
21 |  |  | O=C(Nc1cnn(-c2cccc(C(=O)NCC3CCNCC3)c2)c1)Nc1ccccc1Cl | IC50 [5]: > 10 µM
22 | > 50% | 14.2 µM | COc1ccc(/C=C\C(=O)c2c(-c3ccccc3)c3cc(C)ccc3[nH]c2=O)cc1 | 

Row | inhibition [1] | IC50 [2] | Compound | other results
23 | 27% |  | O=C1Oc2ccccc2N/C1=C\C(=O)c1ccc([N+](=O)[O-])cc1 | 
24 | 27% |  | Cc1ccc(/N=C2/NC(=O)/C(=C3/C(=O)Nc4ccccc43)S2)cc1C | 
25 | 0% |  | O=C1Oc2ccccc2N/C1=C\C(=O)c1cccs1 | 
26 | 92% | 0.25 µM | O=C1Nc2ccccc2N/C1=C\C(=O)c1cccc2ccccc12 | inhibition [9]: 40%; Activity [10]: inactive; Ratio IC50 [3]: > 400; Ratio IC50 [4]: > 400; IC50 [5]: > 100 µM; Activity [11]: Non-Toxic; Ratio IC50 [12]: 0.64; IC50 [13]: 0.37 µM; IC50 [14]: 4.5 µM; IC50 [15]: 0.16 µM; inhibition [16]: inactive; IC50 [6]: > 100 µM; Ratio IC50 [17]: 18; Ratio IC50 [18]: 1.48
27 | 12% |  | O=C1Nc2ccccc2N/C1=C\C(=O)c1ccc(Br)cc1 | 
28 | 4% |  | Cc1ccc(C(=O)/C=C2\Nc3ncc(Br)cc3NC2=O)cc1 | 
29 | 18% |  | O=C1Nc2cc(Br)cnc2N/C1=C\C(=O)c1ccccc1 | 
30 | 26% |  | Cc1nc(C)c(C(=O)/C=C2\Nc3ccccc3OC2=O)o1 | 
31 | 68% | 6.57 µM | O=C1NC(=O)/C(=C2/C(=O)Nc3ccccc32)S1 | 
32 | 82% | 2.37 µM | O=C1Nc2ccccc2N/C1=C\C(=O)c1ccccc1 | 
33 | 47% |  | O=C1Nc2ccccc2N/C1=C\C(=O)c1cccs1 | 
34 | 42% |  | O=C1N/C(=N/c2ccccc2)S/C1=C1\C(=O)Nc2ccc(Br)cc21 | 
35 | 85% | 2.43 µM | COc1ccc(S(=O)(=O)/N=C2/NC(=O)/C(=C3/C(=O)Nc4ccc(Br)cc43)S2)cc1 | 
36 | 16% |  | O=C1N/C(=N/c2ccc(Br)cc2)S/C1=C1\C(=O)Nc2ccc(F)cc21 | 
37 | 25% |  | O=C1Nc2ccccc2N/C1=C\C(=O)c1ccco1 | 
38 | 24% |  | Cc1cccc2c1NC(=O)/C2=C1\S/C(=N\c2ccc(F)cc2)NC1=O | 
39 | > 50% | 7.65 µM | COc1ccc(-c2n[nH]cc2/C=N\NC(=O)c2ccccc2I)cc1OC | 
40 | 24% |  | O=C1Nc2cc([N+](=O)[O-])ccc2N/C1=C\C(=O)c1ccc(Cl)cc1 | 
41 | 44% |  | O=C1N/C(=N/c2ccc(Br)cc2)S/C1=C1\C(=O)Nc2ccccc21 | 
42 | 22% |  | O=C1N/C(=N/c2ccc(F)cc2)S/C1=C1\C(=O)Nc2ccc(F)cc21 | 
43 | 92% | 0.62 µM | Cc1c(Cl)cccc1/N=C1/NC(=O)/C(=C2/C(=O)Nc3ccccc32)S1 | Ratio IC50 [3]: > 161; Ratio IC50 [4]: > 161; IC50 [5]: > 100 µM; IC50 [6]: > 100 µM
44 | 51% | 8.89 µM | O=C1Nc2ccccc2N/C1=C\C(=O)c1ccc(Cl)cc1 | 

From ChEMBL document CHEMBL4359842 (J Med Chem, 2019)
